Laboratory results as given in PubChem BioAssay AID1259407 (Chemical Carcinogenesis Research Information System (CCRIS), 2018).
Active and inactive are the calls of the source. The rule behind the calls is not given here.

Test system: CCRIS mutagenicity, Ames/micronucleus/aberration tests
Test: CCRIS mutagenicity studies
[1] = Test System: AMES SALMONELLA TYPHIMURIUM, Strain/Indicator: TA98, Metabolic Activation: NONE, Method: PREINCUBATION
[2] = Test System: AMES SALMONELLA TYPHIMURIUM, Strain/Indicator: TA98, Metabolic Activation: NONE, Method: STANDARD PLATE
[3] = Test System: AMES SALMONELLA TYPHIMURIUM, Strain/Indicator: TA98, Metabolic Activation: RAT, LIVER, S-9, AROCLOR 1254, Method: PREINCUBATION
[4] = Test System: AMES SALMONELLA TYPHIMURIUM, Strain/Indicator: TA98, Metabolic Activation: RAT, LIVER, S-9, AROCLOR 1254, Method: STANDARD PLATE
[5] = Test System: AMES SALMONELLA TYPHIMURIUM, Strain/Indicator: TA100, Metabolic Activation: NONE, Method: PREINCUBATION
[6] = Test System: AMES SALMONELLA TYPHIMURIUM, Strain/Indicator: TA100, Metabolic Activation: NONE, Method: STANDARD PLATE
[7] = Test System: AMES SALMONELLA TYPHIMURIUM, Strain/Indicator: TA100, Metabolic Activation: RAT, LIVER, S-9, AROCLOR 1254, Method: PREINCUBATION
[8] = Test System: AMES SALMONELLA TYPHIMURIUM, Strain/Indicator: TA100, Metabolic Activation: RAT, LIVER, S-9, AROCLOR 1254, Method: STANDARD PLATE
[9] = Test System: AMES SALMONELLA TYPHIMURIUM, Strain/Indicator: TA1537, Metabolic Activation: NONE, Method: STANDARD PLATE
[10] = Test System: AMES SALMONELLA TYPHIMURIUM, Strain/Indicator: TA1537, Metabolic Activation: RAT, LIVER, S-9, AROCLOR 1254, Method: STANDARD PLATE
[11] = Test System: AMES SALMONELLA TYPHIMURIUM, Strain/Indicator: TA1538, Metabolic Activation: NONE, Method: STANDARD PLATE

In the case of `C[C@]12CC[C@@H]3c4ccc(O)cc4CC[C@H]3[C@@]13CC[C@]2(O)[C@H](O)C3`, the mutagenic call (End Point: IN VITRO CHROMOSOMAL ABERRATIONS, Test System: HUMAN PERIPHERAL LYMPHOCYTES, Metabolic Activation: NONE) is reported as “inactive; negative”, the mutagenic call (End Point: IN VITRO CHROMOSOMAL ABERRATIONS, Test System: HUMAN PERIPHERAL LYMPHOCYTES, Metabolic Activation: RAT, LIVER, S-9, AROCLOR 1254) is reported as “inactive; negative” and the mutagenic call [1] is reported as “inactive; negative”. For the same compound, the mutagenic call [2] was “inactive; negative”, the mutagenic call [3] was “inactive; negative” and the mutagenic call [4] was “inactive; negative”. The mutagenic call [5] was “inactive; negative”, the mutagenic call [6] was “inactive; negative” and the mutagenic call [7] was “inactive; negative”. For the same compound, the mutagenic call [8] was “inactive; negative”, the mutagenic call (Test System: AMES SALMONELLA TYPHIMURIUM, Strain/Indicator: TA1535, Metabolic Activation: NONE, Method: PREINCUBATION) was “inactive; negative” and the mutagenic call (Test System: AMES SALMONELLA TYPHIMURIUM, Strain/Indicator: TA1535, Metabolic Activation: NONE, Method: STANDARD PLATE) was “inactive; negative”. The mutagenic call (Test System: AMES SALMONELLA TYPHIMURIUM, Strain/Indicator: TA1535, Metabolic Activation: RAT, LIVER, S-9, AROCLOR 1254, Method: PREINCUBATION) was “inactive; negative”, the mutagenic call (Test System: AMES SALMONELLA TYPHIMURIUM, Strain/Indicator: TA1535, Metabolic Activation: RAT, LIVER, S-9, AROCLOR 1254, Method: STANDARD PLATE) was “inactive; negative” and the mutagenic call (Test System: AMES SALMONELLA TYPHIMURIUM, Strain/Indicator: TA1537, Metabolic Activation: NONE, Method: PREINCUBATION) was “inactive; negative”. For the same compound, the mutagenic call [9] was “inactive; negative”, the mutagenic call (Test System: AMES SALMONELLA TYPHIMURIUM, Strain/Indicator: TA1537, Metabolic Activation: RAT, LIVER, S-9, AROCLOR 1254, Method: PREINCUBATION) was “inactive; negative” and the mutagenic call [10] was “inactive; negative”. For the same compound, the mutagenic call (Test System: AMES SALMONELLA TYPHIMURIUM, Strain/Indicator: TA1538, Metabolic Activation: NONE, Method: PREINCUBATION) was “inactive; negative”, the mutagenic call [11] was “inactive; negative” and the mutagenic call (Test System: AMES SALMONELLA TYPHIMURIUM, Strain/Indicator: TA1538, Metabolic Activation: RAT, LIVER, S-9, AROCLOR 1254, Method: PREINCUBATION) was “inactive; negative”. The mutagenic call (Test System: AMES SALMONELLA TYPHIMURIUM, Strain/Indicator: TA1538, Metabolic Activation: RAT, LIVER, S-9, AROCLOR 1254, Method: STANDARD PLATE) was “inactive; negative”, the mutagenic call (Test System: CHINESE HAMSTER V-79, Strain/Indicator: V-79 (HGPRT)/6-THIOGUANINE, Metabolic Activation: NONE) was “inactive; negative” and the mutagenic call (Test System: CHINESE HAMSTER V-79, Strain/Indicator: V-79 (HGPRT)/6-THIOGUANINE, Metabolic Activation: RAT, LIVER, S-9, AROCLOR 1254) was “inactive; negative”.
With `COS(=O)(=O)c1ccccc1` the mutagenic call (End Point: IN VITRO MICRONUCLEUS, Test System: MOUSE LYMPHOMA L5178Y CELLS, Metabolic Activation: NONE) was “active; positive”, the mutagenic call (End Point: IN VITRO MICRONUCLEUS, Test System: MOUSE LYMPHOMA L5178Y CELLS, Metabolic Activation: RAT, LIVER, S-9) was “active; positive” and the mutagenic call (End Point: In vitro micronucleus, Test System: Chinese Hamster Ovary (CHO-WBL) cells, Metabolic Activation: None) was “active; positive (p<0.05)”. For the same compound, the mutagenic call [6] was “inactive; negative; response reported as weakly positive” and the mutagenic call (Test System: AMES SALMONELLA TYPHIMURIUM, Strain/Indicator: TA100, Metabolic Activation: RAT, LIVER, S-9, Method: STANDARD PLATE) was “active; positive”.
In the case of `Cc1c2ccccc2c(CCl)c2ccccc12`, the mutagenic call [9] is reported as “active; positive”.
`O=[N+]([O-])c1ccc2ccc3cc4c(c5ccc1c2c35)CCC=C4` was tested, and the mutagenic call (Test System: AMES SALMONELLA TYPHIMURIUM, Strain/Indicator: TA98 (1,8-DNP6), Metabolic Activation: RAT, LIVER, S-9, AROCLOR 1254, Method: STANDARD PLATE) was “active; positive”, the mutagenic call (Test System: AMES SALMONELLA TYPHIMURIUM, Strain/Indicator: TA98(NR), Metabolic Activation: RAT, LIVER, S-9, AROCLOR 1254, Method: STANDARD PLATE) was “active; positive” and the mutagenic call [2] was “active; positive”. The mutagenic call [4] was “active; positive”, the mutagenic call [6] was “active; positive” and the mutagenic call [8] was “active; positive”.
With `CNc1ccc(NCCO)c2c1C(=O)c1ccccc1C2=O` the mutagenic call [2] was “inactive; negative”, the mutagenic call [4] was “active; positive” and the mutagenic call [6] was “inactive; negative”. The mutagenic call [8] was “inactive; negative”, the mutagenic call (Test System: AMES SALMONELLA TYPHIMURIUM, Strain/Indicator: TA102, Metabolic Activation: NONE, Method: STANDARD PLATE) was “inactive; negative” and the mutagenic call (Test System: AMES SALMONELLA TYPHIMURIUM, Strain/Indicator: TA102, Metabolic Activation: RAT, LIVER, S-9, AROCLOR 1254, Method: STANDARD PLATE) was “active; positive”. The mutagenic call (Test System: AMES SALMONELLA TYPHIMURIUM, Strain/Indicator: TA104, Metabolic Activation: NONE, Method: STANDARD PLATE) was “inactive; negative”, the mutagenic call [9] was “inactive; negative” and the mutagenic call [10] was “active; positive”. The mutagenic call [11] was “inactive; negative”, the mutagenic call (Test System: MOUSE LYMPHOMA, Strain/Indicator: L5178Y (TK+/TK-), Metabolic Activation: NONE, Method: SUSPENSION PLATE) was “active; positive” and the mutagenic call (Test System: MOUSE LYMPHOMA, Strain/Indicator: L5178Y (TK+/TK-), Metabolic Activation: NONE, Method: SUSPENSION/PLATE) was “active; positive”. For the same compound, the mutagenic call (Test System: MOUSE LYMPHOMA, Strain/Indicator: L5178Y (TK+/TK-), Metabolic Activation: RAT, LIVER, S-9, AROCLOR 1254, Method: SUSPENSION PLATE) was “active; positive”.
For `CC(=O)Nc1ccc(Oc2ccc(N(OC(C)=O)C(C)=O)cc2)cc1`, the mutagenic call (Test System: AMES SALMONELLA TYPHIMURIUM, Strain/Indicator: TA98(1,8-DNP6), Metabolic Activation: NONE, Method: PREINCUBATION) was “active; positive”, the mutagenic call (Test System: AMES SALMONELLA TYPHIMURIUM, Strain/Indicator: TA98(1,8-DNP6), Metabolic Activation: RAT, LIVER, S-9, AROCLOR 1254, Method: PREINCUBATION) was “active; positive” and the mutagenic call (Test System: AMES SALMONELLA TYPHIMURIUM, Strain/Indicator: TA98(NR), Metabolic Activation: NONE, Method: PREINCUBATION) was “active; positive”. For the same compound, the mutagenic call (Test System: AMES SALMONELLA TYPHIMURIUM, Strain/Indicator: TA98(NR), Metabolic Activation: RAT, LIVER, S-9, AROCLOR 1254, Method: PREINCUBATION) was “active; positive”, the mutagenic call [1] was “active; positive” and the mutagenic call [3] was “active; positive”. The mutagenic call (Test System: AMES SALMONELLA TYPHIMURIUM, Strain/Indicator: TA100(NR), Metabolic Activation: NONE, Method: PREINCUBATION) was “active; positive”, the mutagenic call (Test System: AMES SALMONELLA TYPHIMURIUM, Strain/Indicator: TA100(NR), Metabolic Activation: RAT, LIVER, S-9, AROCLOR 1254, Method: PREINCUBATION) was “active; positive” and the mutagenic call [5] was “active; positive”. The mutagenic call [7] was “active; positive”.
